# In doi:10.1101/520460v1, “Chromokinesins NOD and KID Use Distinct ATPase Mechanisms and Microtubule Interactions to Perform a Similar Function” (biorxiv, 2019):
# Target: T1, KID (Homo sapiens, UniProt Q14807)
# T1 construct: gene KIF22; Glu-C V8 protease added in crystallization
# T1 sequence (Q14807 40-400): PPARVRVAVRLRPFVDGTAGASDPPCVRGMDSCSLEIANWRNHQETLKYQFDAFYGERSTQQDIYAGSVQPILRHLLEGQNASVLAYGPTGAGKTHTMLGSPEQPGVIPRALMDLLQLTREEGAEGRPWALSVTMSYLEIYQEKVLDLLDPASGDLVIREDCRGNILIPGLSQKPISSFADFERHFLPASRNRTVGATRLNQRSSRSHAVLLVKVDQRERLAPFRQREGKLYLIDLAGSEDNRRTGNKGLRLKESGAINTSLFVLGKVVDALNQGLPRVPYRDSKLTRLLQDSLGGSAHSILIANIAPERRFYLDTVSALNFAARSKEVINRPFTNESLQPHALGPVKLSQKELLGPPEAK
# Assay: X-ray crystal structure of the complex
# Type: binding
# Details: crystals from 3.2 M NaCl, 0.1 M Tris pH 8.5, 291 K, 5 molar fold MgADP
structure (smiles),measurement,value
Nc1ncnc2c1ncn2[C@@H]1O[C@H](COP(=O)(O)OP(=O)(O)O)[C@@H](O)[C@H]1O [ADP],X-ray crystal structure of the complex,We solved the X-ray crystal structure of the KID catalytic domain in the ADP state
